Test results as given in ChEMBL document CHEMBL3351869, “Discovery of a new family of carbonic anhydrases in the malaria pathogen Plasmodium falciparum--the η-carbonic anhydrases” (Bioorg Med Chem Lett, 2014).

Molecular target: Carbonic anhydrase 1 (Homo sapiens, UniProt P00915)
Sequence (P00915 whole entry): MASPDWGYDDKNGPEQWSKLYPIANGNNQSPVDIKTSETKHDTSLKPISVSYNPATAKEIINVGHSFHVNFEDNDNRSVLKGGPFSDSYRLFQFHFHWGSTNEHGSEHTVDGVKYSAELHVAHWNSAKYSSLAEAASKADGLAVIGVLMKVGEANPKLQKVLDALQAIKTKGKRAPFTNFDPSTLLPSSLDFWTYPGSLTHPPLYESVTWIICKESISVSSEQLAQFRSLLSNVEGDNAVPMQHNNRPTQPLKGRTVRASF

In the case of `O=[Se](=O)(O)O` [SODIUM SELENATE], the Ki is reported as 570 µM.
